How the values were obtained:
Assay in all cases: cell-based
hNav1.7 = hNav1.7 (Homo sapiens, UniProt Q15858); assay type: cell-based; details: IonWorks Quattro, use-dependent protocol, hNav1.7; read-out: IWQ Use Nav1.7
hNav1.5 = hNav1.5 (Homo sapiens, UniProt Q14524); details: IonWorks Quattro, use-dependent protocol, hNav1.5; read-out: IWQ Use Nav1.5
hNav1.3 = hNav1.3 (Homo sapiens, UniProt Q9NY46); details: IonWorks Quattro, use-dependent protocol, hNav1.3; read-out: IWQ Use Nav1.3
Sequence of hNav1.3 (Q9NY46 whole entry, looked up): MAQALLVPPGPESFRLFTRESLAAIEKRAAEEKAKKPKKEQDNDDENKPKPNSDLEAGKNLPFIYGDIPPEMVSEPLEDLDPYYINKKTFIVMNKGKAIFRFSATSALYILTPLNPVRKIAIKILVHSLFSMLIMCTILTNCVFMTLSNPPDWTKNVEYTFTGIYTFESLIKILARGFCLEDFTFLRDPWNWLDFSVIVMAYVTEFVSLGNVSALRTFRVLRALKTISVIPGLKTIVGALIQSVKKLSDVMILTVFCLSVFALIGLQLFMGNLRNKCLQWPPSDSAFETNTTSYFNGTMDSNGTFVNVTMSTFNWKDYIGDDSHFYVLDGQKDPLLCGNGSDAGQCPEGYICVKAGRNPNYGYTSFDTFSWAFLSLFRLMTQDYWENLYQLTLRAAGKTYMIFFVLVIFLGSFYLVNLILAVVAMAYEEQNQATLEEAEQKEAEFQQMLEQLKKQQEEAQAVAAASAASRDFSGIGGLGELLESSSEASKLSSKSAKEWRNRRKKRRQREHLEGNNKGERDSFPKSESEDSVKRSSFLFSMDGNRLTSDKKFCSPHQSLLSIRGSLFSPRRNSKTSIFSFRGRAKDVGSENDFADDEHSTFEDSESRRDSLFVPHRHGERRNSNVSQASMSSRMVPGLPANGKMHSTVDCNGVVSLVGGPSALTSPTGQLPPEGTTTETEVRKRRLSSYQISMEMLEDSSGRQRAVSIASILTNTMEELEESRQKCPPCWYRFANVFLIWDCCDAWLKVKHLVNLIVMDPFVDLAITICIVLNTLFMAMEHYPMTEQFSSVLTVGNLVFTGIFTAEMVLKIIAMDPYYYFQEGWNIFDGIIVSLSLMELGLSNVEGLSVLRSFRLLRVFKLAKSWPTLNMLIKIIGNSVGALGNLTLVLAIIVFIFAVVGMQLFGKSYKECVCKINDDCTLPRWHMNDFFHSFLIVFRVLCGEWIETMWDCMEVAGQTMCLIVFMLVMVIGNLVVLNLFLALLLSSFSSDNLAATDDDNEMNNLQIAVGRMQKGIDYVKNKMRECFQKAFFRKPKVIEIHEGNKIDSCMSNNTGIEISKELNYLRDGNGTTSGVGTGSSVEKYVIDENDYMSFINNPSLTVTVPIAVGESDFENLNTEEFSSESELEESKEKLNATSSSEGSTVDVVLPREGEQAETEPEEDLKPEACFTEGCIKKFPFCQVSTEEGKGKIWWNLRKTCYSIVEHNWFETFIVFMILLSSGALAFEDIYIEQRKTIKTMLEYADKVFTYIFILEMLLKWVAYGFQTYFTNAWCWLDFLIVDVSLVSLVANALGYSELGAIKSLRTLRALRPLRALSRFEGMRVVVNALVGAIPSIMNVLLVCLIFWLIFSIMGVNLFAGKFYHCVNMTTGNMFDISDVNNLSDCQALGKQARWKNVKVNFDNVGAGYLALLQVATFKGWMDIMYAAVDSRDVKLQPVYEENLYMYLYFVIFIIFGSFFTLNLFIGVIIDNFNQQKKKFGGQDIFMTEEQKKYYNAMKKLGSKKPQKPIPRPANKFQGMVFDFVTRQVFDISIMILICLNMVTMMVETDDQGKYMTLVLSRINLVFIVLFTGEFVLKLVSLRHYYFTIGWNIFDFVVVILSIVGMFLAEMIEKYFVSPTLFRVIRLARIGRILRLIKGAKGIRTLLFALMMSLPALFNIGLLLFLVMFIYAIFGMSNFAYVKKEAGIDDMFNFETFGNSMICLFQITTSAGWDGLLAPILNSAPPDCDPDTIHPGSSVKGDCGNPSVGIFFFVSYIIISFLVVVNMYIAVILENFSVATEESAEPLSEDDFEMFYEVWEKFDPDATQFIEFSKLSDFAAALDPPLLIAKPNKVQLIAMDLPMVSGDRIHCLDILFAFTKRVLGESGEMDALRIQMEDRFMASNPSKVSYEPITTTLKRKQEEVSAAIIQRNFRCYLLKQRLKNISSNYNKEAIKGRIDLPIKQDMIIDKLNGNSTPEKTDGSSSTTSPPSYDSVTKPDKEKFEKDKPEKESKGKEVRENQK

Sequence of hNav1.7 (Q15858 whole entry, looked up): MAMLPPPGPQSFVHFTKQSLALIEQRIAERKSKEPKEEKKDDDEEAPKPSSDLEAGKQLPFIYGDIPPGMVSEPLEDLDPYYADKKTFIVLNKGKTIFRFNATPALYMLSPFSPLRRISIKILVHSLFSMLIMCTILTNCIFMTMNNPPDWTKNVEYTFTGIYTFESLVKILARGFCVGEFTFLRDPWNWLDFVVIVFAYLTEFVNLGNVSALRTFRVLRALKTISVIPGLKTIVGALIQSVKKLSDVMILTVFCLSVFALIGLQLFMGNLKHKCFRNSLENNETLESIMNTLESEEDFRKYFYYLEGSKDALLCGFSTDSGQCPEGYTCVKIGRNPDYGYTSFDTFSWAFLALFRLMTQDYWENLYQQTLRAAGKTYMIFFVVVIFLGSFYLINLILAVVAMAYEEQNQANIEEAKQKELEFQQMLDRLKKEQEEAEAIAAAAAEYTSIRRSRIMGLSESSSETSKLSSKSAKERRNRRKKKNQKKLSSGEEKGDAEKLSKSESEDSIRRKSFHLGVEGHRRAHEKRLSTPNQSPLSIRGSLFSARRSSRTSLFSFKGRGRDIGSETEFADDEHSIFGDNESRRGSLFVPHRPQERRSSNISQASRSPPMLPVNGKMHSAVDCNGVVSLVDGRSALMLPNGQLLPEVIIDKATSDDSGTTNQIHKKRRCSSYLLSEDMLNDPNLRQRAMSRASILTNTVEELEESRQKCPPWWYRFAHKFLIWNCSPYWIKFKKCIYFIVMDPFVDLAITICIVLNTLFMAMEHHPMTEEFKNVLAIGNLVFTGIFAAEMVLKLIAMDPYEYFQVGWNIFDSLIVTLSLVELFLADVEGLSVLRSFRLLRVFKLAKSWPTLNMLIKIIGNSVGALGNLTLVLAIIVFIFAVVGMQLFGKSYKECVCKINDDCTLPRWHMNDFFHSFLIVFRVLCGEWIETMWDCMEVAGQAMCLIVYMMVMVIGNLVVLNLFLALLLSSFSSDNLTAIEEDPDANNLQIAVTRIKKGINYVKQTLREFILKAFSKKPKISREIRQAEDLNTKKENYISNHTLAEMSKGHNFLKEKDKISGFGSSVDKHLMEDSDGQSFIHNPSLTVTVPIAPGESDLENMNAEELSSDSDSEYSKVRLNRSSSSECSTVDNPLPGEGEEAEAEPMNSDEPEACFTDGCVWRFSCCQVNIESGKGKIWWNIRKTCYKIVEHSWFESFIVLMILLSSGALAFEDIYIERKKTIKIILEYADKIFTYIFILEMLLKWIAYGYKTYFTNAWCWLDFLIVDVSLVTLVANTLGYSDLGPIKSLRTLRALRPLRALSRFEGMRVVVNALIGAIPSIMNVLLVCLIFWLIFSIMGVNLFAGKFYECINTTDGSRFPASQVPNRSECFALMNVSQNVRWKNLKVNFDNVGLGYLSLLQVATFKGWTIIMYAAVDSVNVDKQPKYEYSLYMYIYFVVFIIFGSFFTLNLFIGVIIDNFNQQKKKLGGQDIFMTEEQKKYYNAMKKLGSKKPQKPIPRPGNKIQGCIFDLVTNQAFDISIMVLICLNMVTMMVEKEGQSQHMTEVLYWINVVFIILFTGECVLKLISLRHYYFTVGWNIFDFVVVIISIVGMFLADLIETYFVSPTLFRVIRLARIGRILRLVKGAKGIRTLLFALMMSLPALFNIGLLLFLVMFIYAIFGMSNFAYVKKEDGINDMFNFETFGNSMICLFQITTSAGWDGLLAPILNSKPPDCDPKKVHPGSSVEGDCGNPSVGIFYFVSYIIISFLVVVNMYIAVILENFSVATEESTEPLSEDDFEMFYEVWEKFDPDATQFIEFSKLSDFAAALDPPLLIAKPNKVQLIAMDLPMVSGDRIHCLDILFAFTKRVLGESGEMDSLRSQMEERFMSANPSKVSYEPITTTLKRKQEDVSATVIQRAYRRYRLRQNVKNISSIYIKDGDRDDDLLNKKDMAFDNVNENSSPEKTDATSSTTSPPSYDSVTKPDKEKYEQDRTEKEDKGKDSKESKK

SMILES | IC50 (hNav1.7) [nM] | IC50 (hNav1.5) [µM] | IC50 (hNav1.3) [nM]
CC[C@H](C)[C@@H]1NC(=O)[C@@H]2CSSC[C@@H]3NC(=O)[C@H](C(C)C)NC(=O)[C@H](CC(C)C)NC(=O)[C@H](CC(N)=O)NC(=O)[C@@H]4CCCN4C(=O)[C@H](CCCNC(=N)N)NC(=O)[C@H](CSSC[C@H](NC(=O)[C@@H](N)CC(=O)O)C(=O)N[C@@H](CC(C)C)C(=O)NCC(=O)N[C@@H](Cc4cccs4)C(=O)N[C@@H](CC(C)C)C(=O)N[C@@H](CCCNC(=N)N)C(=O)N[C@@H](CCCCN)C(=O)N2)NC(=O)[C@H](CSSC[C@@H](C(=O)N[C@@H](CCCCN)C(=O)N[C@@H](Cc2ccc(O)cc2)C(=O)N[C@H](C(=O)N[C@@H](Cc2ccccc2)C(N)=O)C(C)C)NC(=O)[C@H](Cc2c[nH]c4ccccc24)NC(=O)[C@H](CCCCN)NC(=O)[C@H](Cc2c[nH]cn2)NC(=O)[C@H]([C@@H](C)O)NC(=O)[C@H](CCCNC(=N)N)NC(=O)[C@H](CO)NC3=O)NC(=O)[C@H](CCCCN)NC(=O)[C@H](CC(=O)O)NC(=O)[C@H](CC(N)=O)NC(=O)[C@H](CC(=O)O)NC(=O)[C@@H]2CCCN2C1=O [compound 662] | 22 | > 5 | 68
CC[C@H](C)[C@@H]1NC(=O)[C@@H]2CSSC[C@@H]3NC(=O)[C@H](C(C)C)NC(=O)[C@H](CC(C)C)NC(=O)[C@H](CC(N)=O)NC(=O)[C@@H]4CCCN4C(=O)[C@H](CCCNC(=N)N)NC(=O)[C@H](CSSC[C@H](NC(=O)[C@@H](N)CC(=O)O)C(=O)N[C@@H](CC(C)C)C(=O)NCC(=O)N[C@@H](C4CCCC4)C(=O)N[C@@H](CC(C)C)C(=O)N[C@@H](CCCNC(=N)N)C(=O)N[C@@H](CCCCN)C(=O)N2)NC(=O)[C@H](CSSC[C@@H](C(=O)N[C@@H](CCCCN)C(=O)N[C@@H](Cc2ccc(O)cc2)C(=O)N[C@H](C(=O)N[C@@H](Cc2ccccc2)C(N)=O)C(C)C)NC(=O)[C@H](Cc2c[nH]c4ccccc24)NC(=O)[C@H](CCCCN)NC(=O)[C@H](Cc2c[nH]cn2)NC(=O)[C@H]([C@@H](C)O)NC(=O)[C@H](CCCNC(=N)N)NC(=O)[C@H](CO)NC3=O)NC(=O)[C@H](CCCCN)NC(=O)[C@H](CC(=O)O)NC(=O)[C@H](CC(N)=O)NC(=O)[C@H](CC(=O)O)NC(=O)[C@@H]2CCCN2C1=O [compound 663] | 59 | > 5 | 240
CC[C@H](C)[C@@H]1NC(=O)[C@@H]2CSSC[C@@H]3NC(=O)[C@H](C(C)C)NC(=O)[C@H](CC(C)C)NC(=O)[C@H](CC(N)=O)NC(=O)[C@@H]4CCCN4C(=O)[C@H](CCCNC(=N)N)NC(=O)[C@H](CSSC[C@H](NC(=O)[C@@H](N)CC(=O)O)C(=O)N[C@@H](CC(C)C)C(=O)NCC(=O)N[C@@H](C4CCCCC4)C(=O)N[C@@H](CC(C)C)C(=O)N[C@@H](CCCNC(=N)N)C(=O)N[C@@H](CCCCN)C(=O)N2)NC(=O)[C@H](CSSC[C@@H](C(=O)N[C@@H](CCCCN)C(=O)N[C@@H](Cc2ccc(O)cc2)C(=O)N[C@H](C(=O)N[C@@H](Cc2ccccc2)C(N)=O)C(C)C)NC(=O)[C@H](Cc2c[nH]c4ccccc24)NC(=O)[C@H](CCCCN)NC(=O)[C@H](Cc2c[nH]cn2)NC(=O)[C@H]([C@@H](C)O)NC(=O)[C@H](CCCNC(=N)N)NC(=O)[C@H](CO)NC3=O)NC(=O)[C@H](CCCCN)NC(=O)[C@H](CC(=O)O)NC(=O)[C@H](CC(N)=O)NC(=O)[C@H](CC(=O)O)NC(=O)[C@@H]2CCCN2C1=O [compound 664] | 19 | > 5 | 110
CC[C@H](C)[C@@H]1NC(=O)[C@@H]2CSSC[C@@H]3NC(=O)[C@H](C(C)C)NC(=O)[C@H](CC(C)C)NC(=O)[C@H](CC(N)=O)NC(=O)[C@@H]4CCCN4C(=O)[C@H](CCCNC(=N)N)NC(=O)[C@H](CSSC[C@H](NC(=O)[C@@H](N)CC(=O)O)C(=O)N[C@@H](CC(C)C)C(=O)NCC(=O)N[C@@H](Cc4ccc(C(=O)c5ccccc5)cc4)C(=O)N[C@@H](CC(C)C)C(=O)N[C@@H](CCCNC(=N)N)C(=O)N[C@@H](CCCCN)C(=O)N2)NC(=O)[C@H](CSSC[C@@H](C(=O)N[C@@H](CCCCN)C(=O)N[C@@H](Cc2ccc(O)cc2)C(=O)N[C@H](C(=O)N[C@@H](Cc2ccccc2)C(N)=O)C(C)C)NC(=O)[C@H](Cc2c[nH]c4ccccc24)NC(=O)[C@H](CCCCN)NC(=O)[C@H](Cc2c[nH]cn2)NC(=O)[C@H]([C@@H](C)O)NC(=O)[C@H](CCCNC(=N)N)NC(=O)[C@H](CO)NC3=O)NC(=O)[C@H](CCCCN)NC(=O)[C@H](CC(=O)O)NC(=O)[C@H](CC(N)=O)NC(=O)[C@H](CC(=O)O)NC(=O)[C@@H]2CCCN2C1=O [compound 665] | 230 | > 5 | 30
CC[C@H](C)[C@@H]1NC(=O)[C@@H]2CSSC[C@@H]3NC(=O)[C@H](C(C)C)NC(=O)[C@H](CC(C)C)NC(=O)[C@H](CC(N)=O)NC(=O)[C@@H]4CCCN4C(=O)[C@H](CCCNC(=N)N)NC(=O)[C@H](CSSC[C@H](NC(=O)[C@@H](N)CC(=O)O)C(=O)N[C@@H](CC(C)C)C(=O)NCC(=O)N[C@@H](Cc4ccc(Cl)c(Cl)c4)C(=O)N[C@@H](CC(C)C)C(=O)N[C@@H](CCCNC(=N)N)C(=O)N[C@@H](CCCCN)C(=O)N2)NC(=O)[C@H](CSSC[C@@H](C(=O)N[C@@H](CCCCN)C(=O)N[C@@H](Cc2ccc(O)cc2)C(=O)N[C@H](C(=O)N[C@@H](Cc2ccccc2)C(N)=O)C(C)C)NC(=O)[C@H](Cc2c[nH]c4ccccc24)NC(=O)[C@H](CCCCN)NC(=O)[C@H](Cc2c[nH]cn2)NC(=O)[C@H]([C@@H](C)O)NC(=O)[C@H](CCCNC(=N)N)NC(=O)[C@H](CO)NC3=O)NC(=O)[C@H](CCCCN)NC(=O)[C@H](CC(=O)O)NC(=O)[C@H](CC(N)=O)NC(=O)[C@H](CC(=O)O)NC(=O)[C@@H]2CCCN2C1=O [compound 666] | 29 | 4.5 | 16
CC[C@H](C)[C@@H]1NC(=O)[C@@H]2CSSC[C@@H]3NC(=O)[C@H](C(C)C)NC(=O)[C@H](CC(C)C)NC(=O)[C@H](CC(N)=O)NC(=O)[C@@H]4CCCN4C(=O)[C@H](CCCNC(=N)N)NC(=O)[C@H](CSSC[C@H](NC(=O)[C@@H](N)CC(=O)O)C(=O)N[C@@H](CC(C)C)C(=O)NCC(=O)N[C@@H](Cc4ccc(I)cc4)C(=O)N[C@@H](CC(C)C)C(=O)N[C@@H](CCCNC(=N)N)C(=O)N[C@@H](CCCCN)C(=O)N2)NC(=O)[C@H](CSSC[C@@H](C(=O)N[C@@H](CCCCN)C(=O)N[C@@H](Cc2ccc(O)cc2)C(=O)N[C@H](C(=O)N[C@@H](Cc2ccccc2)C(N)=O)C(C)C)NC(=O)[C@H](Cc2c[nH]c4ccccc24)NC(=O)[C@H](CCCCN)NC(=O)[C@H](Cc2c[nH]cn2)NC(=O)[C@H]([C@@H](C)O)NC(=O)[C@H](CCCNC(=N)N)NC(=O)[C@H](CO)NC3=O)NC(=O)[C@H](CCCCN)NC(=O)[C@H](CC(=O)O)NC(=O)[C@H](CC(N)=O)NC(=O)[C@H](CC(=O)O)NC(=O)[C@@H]2CCCN2C1=O [compound 667] | 120 | > 5 | 17
CC[C@H](C)[C@@H]1NC(=O)[C@@H]2CSSC[C@@H]3NC(=O)[C@H](C(C)C)NC(=O)[C@H](CC(C)C)NC(=O)[C@H](CC(N)=O)NC(=O)[C@@H]4CCCN4C(=O)[C@H](CCCNC(=N)N)NC(=O)[C@H](CSSC[C@H](NC(=O)[C@@H](N)CC(=O)O)C(=O)N[C@@H](CC(C)C)C(=O)NCC(=O)N[C@@H](Cc4ccc(C(F)(F)F)cc4)C(=O)N[C@@H](CC(C)C)C(=O)N[C@@H](CCCNC(=N)N)C(=O)N[C@@H](CCCCN)C(=O)N2)NC(=O)[C@H](CSSC[C@@H](C(=O)N[C@@H](CCCCN)C(=O)N[C@@H](Cc2ccc(O)cc2)C(=O)N[C@H](C(=O)N[C@@H](Cc2ccccc2)C(N)=O)C(C)C)NC(=O)[C@H](Cc2c[nH]c4ccccc24)NC(=O)[C@H](CCCCN)NC(=O)[C@H](Cc2c[nH]cn2)NC(=O)[C@H]([C@@H](C)O)NC(=O)[C@H](CCCNC(=N)N)NC(=O)[C@H](CO)NC3=O)NC(=O)[C@H](CCCCN)NC(=O)[C@H](CC(=O)O)NC(=O)[C@H](CC(N)=O)NC(=O)[C@H](CC(=O)O)NC(=O)[C@@H]2CCCN2C1=O [compound 668] | 180 | 4.4 | 11
CC[C@H](C)[C@@H]1NC(=O)[C@@H]2CSSC[C@@H]3NC(=O)[C@H](C(C)C)NC(=O)[C@H](CC(C)C)NC(=O)[C@H](CC(N)=O)NC(=O)[C@@H]4CCCN4C(=O)[C@H](CCCNC(=N)N)NC(=O)[C@H](CSSC[C@H](NC(=O)[C@@H](N)CC(=O)O)C(=O)N[C@@H](CC(C)C)C(=O)NCC(=O)N[C@@H](Cc4ccc(F)cc4)C(=O)N[C@@H](CC(C)C)C(=O)N[C@@H](CCCNC(=N)N)C(=O)N[C@@H](CCCCN)C(=O)N2)NC(=O)[C@H](CSSC[C@@H](C(=O)N[C@@H](CCCCN)C(=O)N[C@@H](Cc2ccc(O)cc2)C(=O)N[C@H](C(=O)N[C@@H](Cc2ccccc2)C(N)=O)C(C)C)NC(=O)[C@H](Cc2c[nH]c4ccccc24)NC(=O)[C@H](CCCCN)NC(=O)[C@H](Cc2c[nH]cn2)NC(=O)[C@H]([C@@H](C)O)NC(=O)[C@H](CCCNC(=N)N)NC(=O)[C@H](CO)NC3=O)NC(=O)[C@H](CCCCN)NC(=O)[C@H](CC(=O)O)NC(=O)[C@H](CC(N)=O)NC(=O)[C@H](CC(=O)O)NC(=O)[C@@H]2CCCN2C1=O [compound 669] | 91 | > 5 | 37
CC[C@H](C)[C@@H]1NC(=O)[C@@H]2CSSC[C@@H]3NC(=O)[C@H](C(C)C)NC(=O)[C@H](CC(C)C)NC(=O)[C@H](CC(N)=O)NC(=O)[C@@H]4CCCN4C(=O)[C@H](CCCNC(=N)N)NC(=O)[C@H](CSSC[C@H](NC(=O)[C@@H](N)CC(=O)O)C(=O)N[C@@H](CC(C)C)C(=O)NCC(=O)N[C@@H](Cc4ccc(C)cc4)C(=O)N[C@@H](CC(C)C)C(=O)N[C@@H](CCCNC(=N)N)C(=O)N[C@@H](CCCCN)C(=O)N2)NC(=O)[C@H](CSSC[C@@H](C(=O)N[C@@H](CCCCN)C(=O)N[C@@H](Cc2ccc(O)cc2)C(=O)N[C@H](C(=O)N[C@@H](Cc2ccccc2)C(N)=O)C(C)C)NC(=O)[C@H](Cc2c[nH]c4ccccc24)NC(=O)[C@H](CCCCN)NC(=O)[C@H](Cc2c[nH]cn2)NC(=O)[C@H]([C@@H](C)O)NC(=O)[C@H](CCCNC(=N)N)NC(=O)[C@H](CO)NC3=O)NC(=O)[C@H](CCCCN)NC(=O)[C@H](CC(=O)O)NC(=O)[C@H](CC(N)=O)NC(=O)[C@H](CC(=O)O)NC(=O)[C@@H]2CCCN2C1=O [compound 670] | 190 | > 5 | 55
